Laboratory results reported in patent US7109294B2, “Bacterial glycosyltransferase polypeptides involved in antibiotic resistance” (priority 2001, dated 2006).

Columns and labels:
Type in all cases: cell-based, Pseudomonas aeruginosa
[1] = test system: 30B1 mutant planktonic cells; assay: microbe, parasite or virus in culture; settings: for MBC: Pseudomonas aeruginosa, read-out: MBC-P, MBC of planktonically grown cells
[2] = test system: P. aeruginosa PA14 wild type biofilm grown cells
[3] = test system: P. aeruginosa PA14 wild type planktonic cells; assay: microbe, parasite or virus in culture; settings: for MBC: Pseudomonas aeruginosa, PA14, 24 h, read-out: MBC-P, MBC of planktonically grown cells
[4] = test system: 45E7 mutant (PA1163 transposon insertion) biofilm grown cells
[5] = test system: 30B1 mutant (PA1874 transposon insertion) biofilm grown cells
[6] = test system: 45E7 mutant planktonic cells; assay: microbe, parasite or virus in culture; settings: for MBC: Pseudomonas aeruginosa, read-out: MBC-P, MBC of planktonically grown cells
[7] = test system: wild type colony biofilm
[8] = test system: wild type flow cell biofilm

Compound	MBC [1]	MBC-B, MBC of biofilm grown cells [2]	MBC [3]	MBC of biofilm grown 45E7 lower compared to the wt [4]	MBC-B, MBC of biofilm grown cells [4]	MBC-B, MBC of biofilm grown cells [5]	MBC [6]	MBC-P, MBC of planktonically grown cells [1]	MBC-P, MBC of planktonically grown cells [3]	MBC-P, MBC of planktonically grown cells [6]	drop of viability in colony biofilm [7]	live versus dead cells in Tb-treated biofilm (BacLight) [8]	decrease of planktonic MBC relative to the biofilm-grown bacteria [3]
O=C(O)c1cn(C2CC2)c2cc(N3CCNCC3)c(F)cc2c1=O [Cip, ciprofloxacin]	4 µg/mL	50 µg/mL	4 µg/mL	8 fold	6 µg/mL	12.5 µg/mL	4 µg/mL						
gentamycin [Gm]		500 µg/mL		8 fold	60 µg/mL	250 µg/mL		40 µg/mL	40 µg/mL	40 µg/mL			
NC[C@H]1O[C@H](O[C@H]2[C@H](O)[C@@H](O[C@H]3O[C@H](CO)[C@@H](O)[C@H](N)[C@H]3O)[C@H](N)C[C@@H]2N)[C@H](N)C[C@@H]1O [Tb, tobramycin]	8 µg/mL	400 µg/mL	8 µg/mL	16 fold	25 µg/mL	100 µg/mL	8 µg/mL				~100 fold	more live than dead cells	50 fold
